# Measurements from patent US20220047656A1, “SACCHAROMYCES CEREVISIAE YEAST STRAIN FOR THE TREATMENT AND/OR PREVENTION OF OROPHARYNGEAL CANDIDIASIS” (LESAFFRE ET COMPAGNIE, priority 2018, published 2022).
# What was measured:
# Assay type in all cases: in vivo, C57BL/6 mice
# [1] = tested on: IL-1β; experiment: ELISA of IL-1β in supernatants of tongue homogenates; settings: vs infected mice treated with saline solution
# [2] = tested on: TNF-α; experiment: ELISA of TNF-α in supernatants of tongue homogenates; settings: vs infected mice treated with saline solution
# [3] = tested on: IL-6; experiment: ELISA of IL-6 in supernatants of tongue homogenates
smiles,measurement,setting,value
"OC(Cn1cncn1)(Cn1cncn1)c1ccc(F)cc1F [FLZ, fluconazole]",production of IL-1β,[1]; 3 days after infection,considerable inhibition
same,production of IL-1β,[1]; 6 days post-infection,significant decrease
same,production of TNF-α,[2]; 3 days after infection,considerable inhibition
same,production of TNF-α,[2]; 6 days post-infection,significant decrease
same,production of IL-6,"[3]; 3 days after infection, otherwise unchanged compared to the untreated mice",exception
same,production of IL-6,"[3]; 6 days post-infection, vs infected mice treated with saline solution",significant decrease
